Data: PubChem BioAssay (NCI)
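Where inhibition never reached the appropriate level, the endpoint shown equals the highest concentration tested. Otherwise, values were interpolated linearly from a five-concentration, 48-hour dose response in 96-well plates. TGI denotes the concentration required for complete inhibition of growth.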 *1 amine or outer side, *2 acyl side, *3 side chain or, on linkers, in order; H or OH if unused. Where a SMILES comes first, the peptide text is derived from it. Bridges are numbered along the chain shown (N, C = ends). [ ]: non-standard residue; d: D form. X59 = COc1c(N[*:1])cccc1C(=O)O[C@H](C(=O)[C@H](C)C(=O)[*:2])C(C)C; X58 = CC(C)C[C@H](C(=O)[*:2])C(C)C(=O)C1CCCN1[*:1]; NMeY = CN[C@@H](Cc1ccc(O)cc1)C(=O)O; Lac = C[C@H](O)C(=O)O

Assays:
Test in all cases: inhibition of tumour cell growth, NCI panel, 48 h
SK-OV-3 ovarian = test system: SK-OV-3 ovarian
IGROV1 ovarian = test system: IGROV1 ovarian
SF-539 CNS = test system: SF-539 CNS
DLD-1 colon = test system: DLD-1 colon
HOP-18 NSCLC = test system: HOP-18 NSCLC
SNB-78 CNS = test system: SNB-78 CNS
DMS 273 small cell lung = test system: DMS 273 small cell lung
KM20L2 colon = test system: KM20L2 colon
LXFL 529 NSCLC = test system: LXFL 529 NSCLC
DMS 114 small cell lung = test system: DMS 114 small cell lung
786-0 renal = test system: 786-0 renal
M19-MEL melanoma = test system: M19-MEL melanoma
RXF-631 renal = test system: RXF-631 renal
XF 498 CNS = test system: XF 498 CNS

SMILES	TGI (SK-OV-3 ovarian) [µM]	TGI (IGROV1 ovarian) [µM]	TGI (SF-539 CNS) [µM]	TGI (DLD-1 colon) [µM]	TGI (HOP-18 NSCLC) [µM]	TGI (SNB-78 CNS) [µM]	TGI (DMS 273 small cell lung) [µM]	TGI (KM20L2 colon) [µM]	TGI (LXFL 529 NSCLC) [µM]	TGI (DMS 114 small cell lung) [µM]	TGI (786-0 renal) [µM]	TGI (M19-MEL melanoma) [µM]	TGI (RXF-631 renal) [µM]	TGI (XF 498 CNS) [µM]
C/C(=C(/C)c1cc[n+](C)cc1)c1cc[n+](C)cc1	> 75	> 75	> 75	> 75	> 75	> 75	> 75	> 75	> 75	50.3	> 75	–	–	–
O=[N+]([O-])c1cc(Cl)ccc1S(=O)(=O)c1ccc(Cl)cc1[N+](=O)[O-]	29.4	29.4	32.7	29.4	30.4	34.7	27.2	31.3	27.2	23.9	28.9	28.7	–	–
O=c1[nH]cc(COCC(O)CO)c(=O)[nH]1 (centres undefined)	> 100	> 100	> 100	> 100	> 100	> 100	> 100	> 100	> 100	> 100	> 100	> 100	> 100	> 100
C=CCN(N=O)C(=O)N(CCCCC(NC(C)=O)C(=O)NCc1ccccc1)Cc1ccccc1 (centres undefined)	> 100	> 100	> 100	–	81.6	–	> 100	36.7	> 100	86.4	> 100	> 100	> 100	> 100
COc1ccc(-c2cc(=O)c3ccc(F)cc3[nH]2)cc1	> 100	> 100	> 100	> 100	> 100	> 100	–	> 100	> 100	> 100	> 100	> 100	> 100	> 100
COC(=O)C1=C(C(=O)OC)C(OO)(c2ccccc2)OC1=O (centres undefined)	> 100	> 100	> 100	–	–	–	–	–	–	–	> 100	–	–	–
N#Cc1nc(-c2ccc(-c3nc(C#N)c(N)o3)cc2)oc1N	> 10	> 10	> 10	–	–	–	–	–	–	–	> 10	–	–	–
COc1ccc(C[C@H]2C(=O)O[C@H](C)[C@H](NC(=O)[C@@H](CC(C)C)C(C)C(=O)C3CCCN3C(=O)[C@H](C)O)C(=O)Nc3cccc(c3OC)C(=O)O[C@@H](C(C)C)C(=O)[C@H](C)C(=O)N[C@@H](CC(C)C)C(=O)N3CCC[C@H]3C(=O)N2C)cc1 (some centres undefined) (H-[Lac][X58]T[X59]LP[NMeY](Me); ester 3-C)	> 12.5	> 12.5	> 12.5	–	–	–	–	–	–	–	> 12.5	–	–	–
O=C1Nc2ccccc2/C1=N/N1C(=O)/C(=C/c2ccccc2S)N=C1c1ccccc1	> 100	> 100	> 100	–	–	–	–	–	–	–	> 100	–	–	–
Cc1c(-c2ccccc2)c(C#N)c2nnn(C)c(=O)n12	> 100	> 100	> 100	–	–	–	–	–	–	–	> 100	–	–	–
O=C(NN1C(=O)C(Cl)C1c1cccc(Cl)c1)c1ccccc1O (centres undefined)	> 100	> 100	> 100	–	80.7	> 100	> 100	–	> 100	–	> 100	> 100	–	86.7
COc1ccc(OC2OC(CO)C(O)C(O)C2O)cc1 (centres undefined)	> 100	> 100	> 100	–	–	–	–	–	–	–	> 100	–	–	–
CC(C)=CC[C@H]1C[C@@]2(CC=C(C)C)C(=O)/C(=C(/O)c3ccccc3)C(=O)[C@](CC=C(C)C)(C2=O)C1(C)C	24.3	20.3	48	–	–	–	–	–	–	–	21.4	–	–	–
C=C(C)CCN(C(=O)OC(C)(C)C)c1cc(C(C)C)co1	> 100	> 100	> 100	–	–	–	–	–	–	–	> 100	–	–	–
Cn1c(-c2cccs2)cc(-c2ccsc2)c1-c1cccs1	> 100	> 100	> 100	–	–	–	–	–	–	–	> 100	–	–	–
O=C(CSc1nc2ccc(I)cc2c(=O)n1Cc1ccccc1)NN1C(=O)CSC1c1ccccc1 (centres undefined)	67.9	55.6	70.7	–	–	–	–	–	–	–	> 100	–	–	–
Cc1ccc(S(=O)(=O)NC(=O)NCC(N)=O)cc1	> 100	> 100	> 100	–	–	–	–	–	–	–	> 100	–	–	–
Oc1ccccc1-c1n[nH]c(-c2ccccc2O)n1	> 100	> 100	> 100	–	–	–	–	–	–	–	> 100	–	–	–
CC1(C)N([O-])[N+](=O)C1(Br)c1ccccc1 (centres undefined)	> 100	> 100	> 100	–	–	–	–	–	–	–	> 100	–	–	–
COc1ccc2oc(=O)c(-c3csc(-c4ccccc4)n3)cc2c1	38	> 100	31.2	–	–	–	–	–	–	–	34.3	–	–	–
O=S1(=O)c2ccccc2-c2nccc3ccnc1c23	> 100	> 100	> 100	–	–	–	–	–	–	–	> 100	–	–	–
Nc1ncc(N)c(NCC2(CO)CC(CCc3ccccc3)C2)n1 (centres undefined)	25.4	22.4	8.67	–	–	–	–	–	–	–	22.5	–	–	–
CCOC(=O)CON=c1c2ccccc2ccc2ccccc12	> 100	> 100	> 100	–	–	–	–	–	–	–	> 100	–	–	–
COC(=O)/C(C#N)=C(/NCc1ccccc1)Nc1ccccc1	> 100	> 100	> 100	–	–	–	–	–	–	–	> 100	–	–	–
O=C1COc2cc3c(cc2N1)SCCC(=O)N3	> 100	> 100	> 100	> 100	> 100	–	> 100	–	> 100	> 100	> 100	> 100	> 100	> 100
COc1cc(/C=C2\CC(C)C/C(=C\c3ccc(O)c(OC)c3)C2=O)ccc1O (centres undefined)	12.4	5.88	> 23.7	–	–	–	–	–	–	–	> 100	–	–	–
CC(C)(C)Cc1cc(O)ccc1O	> 100	> 100	> 100	–	–	–	–	–	–	–	> 100	–	–	–
